For one series, the target named is CYP450 2C9 (Homo sapiens, UniProt P11712). In words: Human CYP450 screen 2C9. It is filed as in vitro ADME. The text has this:
For the metabolic stability assay, Human cytochrom P450 (CYP450) screens were used. The cytochrom P450 isoenzymes, which are located in the intestines, liver, lung, kidney and brain, are involved in important drug interactions. Drug metabolism occurs in two phases—Phase I involves oxidation, reduction, and hydrolysis. Phase II involves synthesis and conjugation. The CYP 450 isoenzymes are involved in Phase I oxidative reactions. CYP 450 interactions generally result from one of two processes—Induction, where a substance stimulates the synthesis of the enzyme and metabolic capacity is increased, and inhibition, where competitive binding at an enzyme's binding site(s) occurs. A drug with a high affinity for an enzyme will slow the metabolism of any low affinity drug. CYP 3A3/4 is the most abundant CYP 450 isoenzyme in humans and is responsible for the metabolism of the widest range of drugs/substances. (CYP450) screens used were 1A2, 2C9, 2C19, 2D6 and 3A4.

Series [1] deals with T1, β-amyloid1-42 globulomers (Homo sapiens, UniProt P05067).
T1 construct: β-amyloid monomers (0.4 mM) were produced by dissolving the 1-42 peptide in 1,1,1,3,3,3-hexafluoroisopropanol; purchased Bachem (Bubendorf Switzerland)
The series is described as follows: β-amyloid1-42 globulomer formation (6E10 immunoblot, densitometry). It is filed as biochemical. As to conditions: 0.13 mM β-amyloid, 1:5 to 1:20 molar ratio, 18 hours at 37° C. From the text: […] Solutions were then separated using a 15% Tris-Tricine gel, and transferred to a PVDF membrane, which was screened with a mouse anti β-amyloid monoclonal antibody (6E10; Signet, Dedham, Mass.)

Series [2] concerns hAPP(751) transgenic mice. To be noted: mouse, in vivo, ip. As for the experimental part:
Experimental design—20 (+3 reserves) 4.5 month (±1 week) old male hAPP(751) transgenic mice were divided into 2 treatment groups, a control group—treated with vehicle and an experimental group—treated with D-Trp-Aib. Animals were treated for 120 days with 3 intraperitoneal (i.p.) injections of 1 mg per animal per day 7 of the original 20 animals died during the 4-month experimental period, 4 of them from the control group.

Another series has as its system HepG2 cells. The series is described as follows: Cytotoxicity assay in hepatocytes. It is filed as cell-based. As to conditions: up to 2.5×10^−4 M, 3H-Thymidine incorporation and Alamar-Blue assays. The method, then: Cytotoxicity assay in hepatocytes—Following culture (37° C. in an atmosphere of 5% CO2 and 100% humidity), HepG2 cells (ATCC Accession No: HB-8065) were seeded at a density of 5000 cells/well in 96 well optical plate (Nunc, Rochester, N.Y.). Culture was maintained in the logarithmic phase throughout the experiment. One day after seeding, peptides were dissolved in DMSO (1:10) and added to the wells to achieve final concentrations of 2.5×10^−4−1×10^−8. Each plate column (8 wells) was used to test one peptide in one concentration. A day following peptide addition, ^3H-Thymidine was added to the cell culture, and two days following addition cells were harvested. ^3H-Thymidine incorporation to the DNA of proliferating cells was measured in Top Count NTX counter (Packard, Quebec, Canada). […] The indicator was incubated for 18 hours and fluorescence was measured with 544 nm excitation/590 nm emission wavelengths. Data was presented as the mean amount of Alamar-Blue fluorescence or ^3H-Thymidine CPM monitored per well. Average was calculated per plate column. For Alamar-Blue signals standard deviation (SD) was calculated, while for ^3H Thymidine signal, standard error (SE) was calculated. […] Equivocal results were analyzed using oneway (ANOVA) with Dunnett Multiple comparison Test.

A short description of series [3]: Serum stability, mouse serum (HPLC). Format: in vitro ADME. To be noted: 37° C., 2 and 5 hours. The text has this:
D-Trp-Aib serum stability—Regardless of administration route, all drugs penetrate and distribute in the body via the blood system. This milieu is based not only on cells and buffering compounds, but also on proteins, carbohydrates, lipid-protein micelles, etc. Serum proteins mainly contain carrier proteins, such as albumin, but also contain many enzymes that might treat the drug as a substrate. Thus, the susceptibility of any drug entering this environment should be evaluated. The stability of D-Trp-Aib spiked into serum was evaluated by analysis of intact sample concentrations at different time points. D-Trp-Aib (250 μg/ml PBS) was incubated with mouse (Harlan Biotech, Israel) or human (obtained from Sheba medical center, Tel Hashomer, Israel) sera or PBS (1:1, 37° C.), and aliquots were analyzed by HPLC analysis at times 0, 2 and 5 hrs. The reaction was stopped and precipitation was effected by the addition of acetonitrile (Baker, Phillipsburg N.J.) and 10% TCA. Following centrifugation (10,000 g, 5 min), Supernatant was transferred to HPLC analysis. Mean amounts of D-Trp-Aib (μg)±s.e.m. were calculated by an internal calibration curve. […]

Another series relates to PC-12 cells. In words: Inhibition of β-amyloid cytotoxicity in PC-12 cells (MTT). It is filed as cell-based. To be noted: 5 μM Aβ1-40, 6.5 μM-150 μM D-Trp-Aib, 24 hr, pre-incubated 21 days. As for the experimental part:
Prior to incubation with the PC-12 cells, 5× concentrated Aβ1-40 (25 μM) and 5× concentrated D-Trp-Aib were pre-incubated for 21 days.
Cell viability—The MTT-assay is a very sensitive assay measuring the mitochondrial dehydrogenase activity in viable cells. Following incubation, MTT reduction assay was undertaken according to the method described by Mosmann, [J. Immunol. Meth, 55-63 (1983)], cell viability was calculated by subtracting Aβ1-40 samples absorbance from non-Aβ1-40 controls containing the same D-Trp-Aib concentrations.

SMILES strings stand for the structures. Square brackets hold non-standard residues; d marks the D form. Peptide text beside a SMILES is read from it. Aib = CC(C)(N)C(=O)O

CYP450 2C9, sequence (P11712 whole entry): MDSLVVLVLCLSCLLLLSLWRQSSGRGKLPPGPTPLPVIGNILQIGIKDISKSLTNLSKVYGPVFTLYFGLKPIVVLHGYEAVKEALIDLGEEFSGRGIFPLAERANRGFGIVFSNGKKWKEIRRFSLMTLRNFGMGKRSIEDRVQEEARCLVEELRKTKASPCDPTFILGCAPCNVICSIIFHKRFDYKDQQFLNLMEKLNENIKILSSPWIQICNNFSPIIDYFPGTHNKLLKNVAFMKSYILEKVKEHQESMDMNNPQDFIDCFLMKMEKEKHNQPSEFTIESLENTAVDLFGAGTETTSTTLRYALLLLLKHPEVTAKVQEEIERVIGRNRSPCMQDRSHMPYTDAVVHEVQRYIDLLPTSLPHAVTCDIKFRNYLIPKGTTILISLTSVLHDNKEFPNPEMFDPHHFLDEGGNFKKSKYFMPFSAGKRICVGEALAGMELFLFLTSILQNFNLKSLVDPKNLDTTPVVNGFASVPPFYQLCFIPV
T1 sequence (P05067 672-713): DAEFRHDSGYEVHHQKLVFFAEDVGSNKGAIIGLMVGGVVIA

Turning to `CC(C)(NC(=O)[C@H](N)Cc1c[nH]c2ccccc12)C(=O)O` [D-Trp-Aib] (H-[dW]-[Aib]-OH), the “activity in CYP450 screen” value at CYP450 2C9 was “None of the results met significance criteria”. Also, the “amount of globulomers (densitometer analysis)” value in series [1] is on record as “about 45 % of the control”. Further, in series [2], the long-term toxicity result is recorded as “no long-term toxicity”. The “cytotoxic effect on HepG2 cells” value in the series with HepG2 cells is given as “no cytotoxic effect”. In series [3], the “D-Trp-Aib concentration after incubation in serum” value is given as “No decrease”. In addition, the “inhibition of β-amyloid cytotoxicity (MTT viability)” value in the series with PC-12 cells is reported as “highly effective in inhibiting the cytotoxicity of β-amyloid”.

These data come from US8012929B2, “Peptides directed for diagnosis and treatment of amyloid-associated diseases” (Tel Aviv University Future Technology Development L.P., priority 2002, dated 2011).
